Experimental data: ChEMBL document CHEMBL3856195, “2,3,4-Trihydroxybenzyl-hydrazide analogues as novel potent coxsackievirus B3 3C protease inhibitors” (Eur J Med Chem, 2016)
Activity calls are given as the source filed them. The rule behind the calls is not given here.

Legend:
Genome polyprotein [1] = target: T1, Genome polyprotein (Coxsackievirus B3 (strain Nancy), UniProt P03313); experiment: Inhibition of recombinant Coxsackievirus B3 3C protease expressed in Escherichia coli BL21 (DE3) preincubated for 5 mins followed by addition of NMA-EALFQGPPVK-DNP-rrr-NH2 as substrate measured up to 2 hrs by FRET-based enzyme assay
[2] = Cytotoxicity against human HeLa cells assessed as reduction in cell viability at 10 and 100 uM by CCK8 assay; assay type: toxicity, cell-based
Coxsackievirus B3 = experiment: Antiviral activity against Coxsackievirus B3 infected in human HeLa cells at 10 uM measured after 20 to 24 hrs by CCK8 assay; assay type: functional; conditions: Enterovirus B
[3] = target: Genome polyprotein (Coxsackievirus B3 (strain Nancy)) (UniProt P03313); experiment: Mixed-type inhibition of recombinant Coxsackievirus B3 3C protease expressed in Escherichia coli BL21 (DE3) preincubated with protein followed by addition of NMA-EALFQGPPVK-DNP-rrr-NH2 as substrate measured every 5 mins for 2 hrs by Lineweaver-Burk plot analysis
Genome polyprotein [4] = target: T1, Genome polyprotein; experiment: Competitive inhibition of recombinant Coxsackievirus B3 3C protease expressed in Escherichia coli BL21 (DE3) preincubated with protein followed by addition of NMA-EALFQGPPVK-DNP-rrr-NH2 as substrate measured every 5 mins for 2 hrs by Dixon plot analysis
[5] = target: Genome polyprotein (Coxsackievirus B3 (strain Nancy)) (UniProt P03313); experiment: Non-competitive inhibition of recombinant Coxsackievirus B3 3C protease expressed in Escherichia coli BL21 (DE3) preincubated with protein followed by addition of NMA-EALFQGPPVK-DNP-rrr-NH2 as substrate measured every 5 mins for 2 hrs by Michaelis-Menten plot analysis
Genome polyprotein [6] = target: T1, Genome polyprotein; experiment: Inhibition of recombinant Coxsackievirus B3 C-terminal 6His-tagged 3C protease expressed in Escherichia coli BL21 preincubated for 20 mins followed by addition of fluorogenic peptide as substrate by Cheng-Prusoff equation analysis
Genome polyprotein [7] = target: T1, Genome polyprotein; experiment: Inhibition of recombinant Coxsackievirus B3 3C protease expressed in Escherichia coli BL21 (DE3) preincubated for 5 mins followed by addition of NMA-EALFQGPPVK-DNP-rrr-NH2 as substrate measured every 10 mins for 2 hrs by FRET-based enzyme assay
[8] = Apparent permeability in MDCK cells at 50 uM and measured after 30 mins by LC-MS/MS analysis; assay type: ADME, cell-based, Canis lupus familiaris; conditions: dog

T1 sequence (P03313 1541-1723 limits assumed): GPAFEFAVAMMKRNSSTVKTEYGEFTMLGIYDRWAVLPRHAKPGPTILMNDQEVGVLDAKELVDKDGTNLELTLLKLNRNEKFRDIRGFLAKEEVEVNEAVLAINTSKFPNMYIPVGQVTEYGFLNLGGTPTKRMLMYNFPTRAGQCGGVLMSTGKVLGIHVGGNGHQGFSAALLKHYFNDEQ
Chain of Genome polyprotein (Coxsackievirus B3 (strain Nancy)) (P03313 whole entry): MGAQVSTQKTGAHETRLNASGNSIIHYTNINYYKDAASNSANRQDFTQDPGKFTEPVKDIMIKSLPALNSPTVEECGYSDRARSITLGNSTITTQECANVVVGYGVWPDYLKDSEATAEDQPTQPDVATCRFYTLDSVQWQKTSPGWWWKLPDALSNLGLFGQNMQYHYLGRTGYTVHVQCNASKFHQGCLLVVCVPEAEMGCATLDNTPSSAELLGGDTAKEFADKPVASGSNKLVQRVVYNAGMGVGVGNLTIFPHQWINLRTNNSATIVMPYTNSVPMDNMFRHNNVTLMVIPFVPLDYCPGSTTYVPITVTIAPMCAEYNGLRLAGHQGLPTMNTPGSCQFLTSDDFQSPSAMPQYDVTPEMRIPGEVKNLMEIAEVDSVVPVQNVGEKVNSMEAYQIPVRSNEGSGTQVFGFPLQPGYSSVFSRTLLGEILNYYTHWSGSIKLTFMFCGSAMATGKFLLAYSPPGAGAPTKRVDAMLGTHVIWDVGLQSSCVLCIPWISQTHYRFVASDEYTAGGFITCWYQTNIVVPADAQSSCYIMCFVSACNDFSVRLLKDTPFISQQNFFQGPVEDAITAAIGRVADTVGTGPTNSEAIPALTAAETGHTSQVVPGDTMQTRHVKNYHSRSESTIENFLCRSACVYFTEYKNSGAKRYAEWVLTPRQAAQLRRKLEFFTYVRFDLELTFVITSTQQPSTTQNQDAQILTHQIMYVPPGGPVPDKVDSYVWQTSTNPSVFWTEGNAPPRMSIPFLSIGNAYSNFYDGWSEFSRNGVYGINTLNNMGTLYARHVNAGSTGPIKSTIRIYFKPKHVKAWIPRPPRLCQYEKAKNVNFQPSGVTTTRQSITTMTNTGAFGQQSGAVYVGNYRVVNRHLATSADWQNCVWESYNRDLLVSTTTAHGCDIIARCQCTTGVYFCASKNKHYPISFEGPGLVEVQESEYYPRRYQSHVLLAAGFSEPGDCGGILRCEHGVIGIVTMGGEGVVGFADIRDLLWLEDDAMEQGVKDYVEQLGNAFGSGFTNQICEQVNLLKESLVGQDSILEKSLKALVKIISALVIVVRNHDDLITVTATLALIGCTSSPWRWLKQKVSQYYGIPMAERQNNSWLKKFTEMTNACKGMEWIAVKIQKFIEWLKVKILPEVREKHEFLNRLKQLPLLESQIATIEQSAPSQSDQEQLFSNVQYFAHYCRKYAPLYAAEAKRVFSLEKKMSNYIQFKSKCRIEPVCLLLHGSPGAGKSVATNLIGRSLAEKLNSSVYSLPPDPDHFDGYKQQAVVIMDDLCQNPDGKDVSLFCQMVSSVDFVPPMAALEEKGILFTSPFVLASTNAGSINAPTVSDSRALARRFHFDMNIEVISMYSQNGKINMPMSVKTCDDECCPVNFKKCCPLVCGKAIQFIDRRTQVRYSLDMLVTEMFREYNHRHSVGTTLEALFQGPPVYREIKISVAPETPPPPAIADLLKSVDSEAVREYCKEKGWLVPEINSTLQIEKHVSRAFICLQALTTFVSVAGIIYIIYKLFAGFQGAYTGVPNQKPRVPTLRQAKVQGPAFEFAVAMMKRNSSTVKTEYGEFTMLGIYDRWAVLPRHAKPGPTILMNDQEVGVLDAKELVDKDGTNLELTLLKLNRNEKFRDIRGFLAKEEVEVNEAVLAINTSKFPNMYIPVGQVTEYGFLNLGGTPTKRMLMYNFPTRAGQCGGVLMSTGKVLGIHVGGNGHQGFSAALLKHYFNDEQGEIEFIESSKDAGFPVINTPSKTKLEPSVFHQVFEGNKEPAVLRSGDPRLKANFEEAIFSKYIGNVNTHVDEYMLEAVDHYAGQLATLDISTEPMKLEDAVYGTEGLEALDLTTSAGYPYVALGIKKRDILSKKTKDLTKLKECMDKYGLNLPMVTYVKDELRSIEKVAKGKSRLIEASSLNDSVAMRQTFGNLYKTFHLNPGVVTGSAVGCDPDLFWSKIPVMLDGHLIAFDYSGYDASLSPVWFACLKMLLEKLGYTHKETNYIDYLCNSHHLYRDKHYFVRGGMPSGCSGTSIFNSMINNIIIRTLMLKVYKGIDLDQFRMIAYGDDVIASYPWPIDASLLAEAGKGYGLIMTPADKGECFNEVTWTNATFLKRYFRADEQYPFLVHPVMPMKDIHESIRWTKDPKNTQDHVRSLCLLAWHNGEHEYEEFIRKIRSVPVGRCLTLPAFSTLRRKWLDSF

Row | Compound | IC50 (Genome polyprotein [1]) | other results
1 | O=C(CCCCc1ccc(F)cc1)N/N=C/c1ccc(O)c(O)c1O | 0.47 µM | 
2 | CS(=O)(=O)c1ccc(C(=O)N/N=C/c2ccc(O)c(O)c2O)cc1 | 0.89 µM | 
3 | CC(C)(C)OC(=O)NC(Cc1ccc(F)cc1)C(=O)NNCc1ccc(O)c(O)c1O (stereo not drawn) | 0.78 µM | 
4 | O=C(N/N=C/c1ccc(O)c(O)c1)c1ccccc1 | > 50 µM | 
5 | O=C(CCc1ccc(O)cc1)N/N=C/c1ccc(O)c(O)c1O | 0.12 µM | 
6 | CS(=O)(=O)c1cccc(/C=N/NC(=O)c2ccccc2)c1 | > 50 µM | 
7 | O=C(Cc1ccc(O)cc1)N/N=C/c1ccc(O)c(O)c1O | 0.18 µM | 
8 | O=C(NNCc1ccc(O)c(O)c1O)c1ccc(Br)cc1 | 0.21 µM | 
9 | O=C(NNCc1ccc(O)c(O)c1O)c1ccc(O)cc1 | 0.17 µM | Activity [2]: Non-Toxic
10 | O=C(CCCCc1ccccc1)N/N=C/c1ccc(O)c(O)c1O | 0.44 µM | 
11 | CC(C)(C)OC(=O)NC(Cc1ccc(O)cc1)C(=O)N/N=C/c1ccc(O)c(O)c1O (stereo not drawn) | 0.54 µM | 
12 | O=C(Cc1ccc(F)cc1)NNCc1ccc(O)c(O)c1O | 0.34 µM | 
13 | O=C(CCc1ccc(O)cc1)NNCc1ccc(O)c(O)c1O | 0.08 µM | 
14 | CS(=O)(=O)c1ccc(C(=O)NNCc2ccc(O)c(O)c2O)cc1 | 0.77 µM | 
15 | O=C(N/N=C/c1cccc(O)c1O)c1ccccc1 | > 50 µM | 
16 | CCCCC(=O)Oc1c(O)ccc(CNNC(=O)CCCCc2ccc(O)cc2)c1O | 0.87 µM | inhibition at 10 µM (Coxsackievirus B3): 43%; Activity [2]: Non-Toxic
17 | O=C(CCc1ccc(F)cc1)NNCc1ccc(O)c(O)c1O | 0.2 µM | 
18 | CC(C)(C)OC(=O)NC(Cc1ccc(F)cc1)C(=O)N/N=C/c1ccc(O)c(O)c1O (stereo not drawn) | 0.89 µM | 
19 | O=C(NNCc1ccc(O)c(O)c1O)c1ccc(Cl)cc1 | 0.43 µM | 
20 | O=C(NNCc1ccc(O)c(O)c1O)c1ccc(F)cc1 | 0.65 µM | 
21 | O=C(CCCc1ccc(O)cc1)NNCc1ccc(O)c(O)c1O | 0.1 µM | 

Row | Compound | IC50 (Genome polyprotein [1]) | other results
22 | O=C(N/N=C/c1ccc(O)c(O)c1O)c1ccc(Cl)cc1 | 0.59 µM | 
23 | O=C(N/N=C/c1ccc(O)c(O)c1O)c1ccc(Br)cc1 | 0.46 µM | 
24 | Cc1cc(C(=O)N[C@H](C(=O)N[C@@H](Cc2ccc(F)cc2)C(=O)N/N=C/c2ccc(O)c(O)c2O)C(C)C)no1 | 0.61 µM | 
25 | O=C(CCCc1ccc(F)cc1)NNCc1ccc(O)c(O)c1O | 0.4 µM | 
26 | O=C(N/N=C/c1ccccc1)c1ccccc1 | > 50 µM | 
27 | O=C(NNCc1c(O)cc(O)cc1O)c1ccccc1 | 0.77 µM | 
28 | O=C(CCCCc1ccc(O)cc1)NNCc1ccc(O)c(O)c1O | 0.07 µM | inhibition [3]: Active; Ki (Genome polyprotein [4]): 0.324 µM; inhibition [5]: Dose-dependent effect; Activity [2]: Non-Toxic
29 | O=C(NNCc1ccc(O)c(O)c1O)c1ccccc1 | 0.65 µM | 
30 | O=C(N/N=C/c1cccc(O)c1)c1ccccc1 | > 50 µM | 
31 | O=C(N/N=C/c1c(O)cc(O)cc1O)c1ccccc1 | 1.07 µM | 
32 | O=C(CCCCc1ccccc1)NNCc1ccc(O)c(O)c1O | 0.19 µM | 
33 | O=C(N/N=C/c1ccccc1O)c1ccccc1 [SALICYLALDEHYDE BENZOYL HYDRAZONE] | > 50 µM | 
34 | CCCCC(=O)Oc1c(O)ccc(CNNC(=O)c2ccc(O)cc2)c1O | 1.02 µM | inhibition at 10 µM (Coxsackievirus B3): 38%
35 | CC(=O)/C=C/[C@H](C[C@@H]1CNCC1=O)NC(=O)[C@H](CC(C)C)NC(=O)[C@H](CNC(=O)C(C)(C)C)NC(=O)OCc1ccccc1 |  | Ki (Genome polyprotein [6]): 0.8 µM
36 | Cc1cc(C(=O)N[C@H](C(=O)N[C@@H](Cc2ccc(F)cc2)C(=O)NNCc2ccc(O)c(O)c2O)C(C)C)no1 | 0.23 µM | 
37 | O=C(N/N=C/c1ccc(O)c(O)c1O)c1ccccc1 | 0.97 µM | 
38 | NC(CO)C(=O)N/N=C/c1ccc(O)c(O)c1O (stereo not drawn) |  | IC50 (Genome polyprotein [7]): 2.7 µM
39 | CCCCC(=O)Oc1c(O)ccc(/C=N/NC(=O)CCCCc2ccc(O)cc2)c1O | 0.97 µM | Papp at 0.5 h, 50 µM [8]: 25 ×10⁻⁶ cm/s; inhibition at 10 µM (Coxsackievirus B3): 62%; Activity [2]: Non-Toxic
40 | O=C(Cc1ccc(O)cc1)NNCc1ccc(O)c(O)c1O | 0.11 µM | 
41 | O=C(N/N=C/c1ccc(O)cc1)c1ccccc1 | > 50 µM | 
42 | O=C(Cc1ccc(F)cc1)N/N=C/c1ccc(O)c(O)c1O | 0.66 µM | 

Row | Compound | IC50 (Genome polyprotein [1]) | other results
43 | O=C(CCCc1ccccc1)N/N=C/c1ccc(O)c(O)c1O | 0.71 µM | 
44 | O=C(N/N=C/c1ccc(O)c(O)c1O)c1ccc(F)cc1 | 0.87 µM | 
45 | O=C(CCCc1ccc(F)cc1)N/N=C/c1ccc(O)c(O)c1O | 0.64 µM | 
46 | O=C(CCc1ccc(F)cc1)N/N=C/c1ccc(O)c(O)c1O | 0.58 µM | 
47 | O=C(CCc1ccccc1)NNCc1ccc(O)c(O)c1O | 0.32 µM | 
48 | O=C(N/N=C/c1cc(O)cc(O)c1)c1ccccc1 | > 50 µM | 
49 | O=C(Cc1ccccc1)N/N=C/c1ccc(O)c(O)c1O | 0.75 µM | 
50 | O=C(N/N=C/c1ccc(O)cc1O)c1ccccc1 | > 50 µM | 
51 | CC(C)(C)OC(=O)NC(Cc1ccc(O)cc1)C(=O)NNCc1ccc(O)c(O)c1O (stereo not drawn) | 0.27 µM | 
52 | O=C(CCCCc1ccc(O)cc1)N/N=C/c1ccc(O)c(O)c1O | 0.11 µM | Papp at 0.5 h, 50 µM [8]: 11 ×10⁻⁶ cm/s; Activity [2]: Non-Toxic
53 | O=C(CCCCc1ccc(F)cc1)NNCc1ccc(O)c(O)c1O | 0.23 µM | 
54 | CCCCC(=O)Oc1c(O)ccc(/C=N/NC(=O)c2ccc(O)cc2)c1O | 1.21 µM | inhibition at 10 µM (Coxsackievirus B3): 42%; Activity [2]: Non-Toxic
55 | NC(CO)C(=O)NNCc1ccc(O)c(O)c1O (stereo not drawn) [BENSERAZIDE] |  | IC50 (Genome polyprotein [7]): 2.4 µM
56 | O=C(Cc1ccccc1)NNCc1ccc(O)c(O)c1O | 0.41 µM | 
57 | O=C(CCCc1ccccc1)NNCc1ccc(O)c(O)c1O | 0.34 µM | 
58 | O=C(N/N=C/c1ccc(O)c(O)c1O)c1ccc(O)cc1 | 0.32 µM | Activity [2]: Non-Toxic
59 | O=C(N/N=C/c1cc(O)ccc1O)c1ccccc1 | 5.51 µM | 
60 | CS(=O)(=O)c1ccc(/C=N/NC(=O)c2ccccc2)cc1 | > 50 µM | 
61 | O=C(CCc1ccccc1)N/N=C/c1ccc(O)c(O)c1O | 0.69 µM | 
62 | O=C(CCCc1ccc(O)cc1)N/N=C/c1ccc(O)c(O)c1O | 0.16 µM | 
